This passage reports inhibition, IC50 and EC50 results from patent US20230150970A1, “AMINOPYRIMIDINE DERIVATIVES AND THEIR USE AS ARYL HYDROCARBON RECEPTOR MODULATORS” (DONG-A ST CO., LTD., priority 2020, published 2023).

Read-outs that look alike come from different tables or passages of the source.

Data set [1] concerns the target T1, AhR (Homo sapiens, UniProt P35869).
T1 sequence (P35869 11-848): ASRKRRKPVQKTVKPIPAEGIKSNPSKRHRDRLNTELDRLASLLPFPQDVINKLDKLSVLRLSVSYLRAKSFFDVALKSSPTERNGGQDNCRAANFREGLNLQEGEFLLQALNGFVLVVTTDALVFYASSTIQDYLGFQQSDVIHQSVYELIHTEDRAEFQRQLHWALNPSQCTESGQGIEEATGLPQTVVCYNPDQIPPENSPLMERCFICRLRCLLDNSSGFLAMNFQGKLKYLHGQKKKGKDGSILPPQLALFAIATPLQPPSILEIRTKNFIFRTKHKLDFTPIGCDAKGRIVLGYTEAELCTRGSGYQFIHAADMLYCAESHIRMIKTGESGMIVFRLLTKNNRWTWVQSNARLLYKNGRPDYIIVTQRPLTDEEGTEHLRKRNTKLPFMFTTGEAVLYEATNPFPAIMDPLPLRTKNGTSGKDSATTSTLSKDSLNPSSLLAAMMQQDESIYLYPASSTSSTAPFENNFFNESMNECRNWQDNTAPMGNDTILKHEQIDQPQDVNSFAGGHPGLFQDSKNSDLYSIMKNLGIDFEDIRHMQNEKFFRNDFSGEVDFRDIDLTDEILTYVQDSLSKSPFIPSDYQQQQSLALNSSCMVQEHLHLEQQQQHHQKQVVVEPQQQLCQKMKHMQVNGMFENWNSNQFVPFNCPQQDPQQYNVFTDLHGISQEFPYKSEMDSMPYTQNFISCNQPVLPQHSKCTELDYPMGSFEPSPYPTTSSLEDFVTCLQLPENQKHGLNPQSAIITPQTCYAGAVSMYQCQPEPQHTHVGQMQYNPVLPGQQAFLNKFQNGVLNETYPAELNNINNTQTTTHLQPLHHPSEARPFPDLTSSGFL
Description: In Vitro Assay 4: endogenous AhR activity assay (CYP1A1 and CYP1B1 mRNA, qRT-PCR, HepG2 cells). Background: Quantitative PCR measures a nucleic acid by following its amplification.
Description: In Vitro Assay 4: Endogenous AhR Activity Assay
HepG2 cells were seeded in 12-well plate (3×10^5 cells/well). A day after seeding, the cells were treated with TCDD (10 nM) alone or with compounds (123 nM) for 4 hours. Total RNA was extracted using Trizol (Thermo Fisher Scientific). cDNA synthesis and quantitative RT-PCR (qRT-PCR) assays were performed using PrimeScript™ RT Master Mix (TAKARA) and TB Green™ Premix Ex Taq™ II (TAKARA) in accordance with manufacturer's instruction. For the measurement of endogenous AhR activity, relative mRNA levels of CYP1A1 and CYP1B1 were quantitated relative to β-actin mRNA by the comparative Ct (ΔΔCt) method. The percent inhibitions were calculated according to:

Data set [2] addresses T1, AhR. As to the kind of experiment: In Vitro Assay 1: XRE-luciferase reporter assay, antagonism in human cell line (HepG2).
Data set [3] has as its target T2, AhR (Mus musculus, UniProt P30561).
T2 sequence (P30561 1-848): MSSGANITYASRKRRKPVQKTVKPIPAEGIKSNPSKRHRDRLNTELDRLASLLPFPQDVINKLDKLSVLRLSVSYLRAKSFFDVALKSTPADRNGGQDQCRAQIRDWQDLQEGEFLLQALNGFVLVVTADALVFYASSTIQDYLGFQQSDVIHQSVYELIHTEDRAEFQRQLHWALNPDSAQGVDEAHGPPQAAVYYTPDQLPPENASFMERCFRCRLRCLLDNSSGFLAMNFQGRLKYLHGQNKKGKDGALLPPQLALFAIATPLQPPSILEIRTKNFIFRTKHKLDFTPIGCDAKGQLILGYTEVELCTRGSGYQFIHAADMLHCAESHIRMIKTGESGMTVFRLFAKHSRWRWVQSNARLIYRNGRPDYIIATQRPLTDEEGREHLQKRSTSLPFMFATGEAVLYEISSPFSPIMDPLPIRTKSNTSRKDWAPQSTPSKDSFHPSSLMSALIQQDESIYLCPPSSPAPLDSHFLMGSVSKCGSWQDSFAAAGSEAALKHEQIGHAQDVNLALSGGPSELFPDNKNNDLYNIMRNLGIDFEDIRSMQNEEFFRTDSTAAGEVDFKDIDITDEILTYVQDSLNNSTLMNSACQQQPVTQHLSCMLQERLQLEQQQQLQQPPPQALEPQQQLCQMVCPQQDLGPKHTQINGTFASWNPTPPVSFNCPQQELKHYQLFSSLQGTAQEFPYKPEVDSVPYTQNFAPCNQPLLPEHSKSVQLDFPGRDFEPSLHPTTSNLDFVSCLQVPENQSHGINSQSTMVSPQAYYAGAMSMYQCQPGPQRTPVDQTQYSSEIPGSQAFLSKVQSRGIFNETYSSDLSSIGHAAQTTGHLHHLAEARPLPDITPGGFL
As to the kind of experiment: In Vitro Assay 2: XRE-luciferase reporter assay, antagonism in mouse cell line (Hepa1c1c7). The class given is cell-based. Particulars: 6 hours, read-out: Assay 2: AhR-Luc Mouse Antagonism (IC50). How it is done:
In Vitro Assay 2: Antagonism in Mouse Cell Line
Hepa1c1c7 (murine liver cancer cell line) cells co-transfected with XRE-Luc and Nano-Luc plasmids were plated in complete medium and incubated overnight at 37° C. in a CO2 incubator. Following incubation, cells were treated with AhR activating ligands such as kynurenic acid, kynurenine (#) with or without test compounds for 6 hours.

The target of data set [4] is T1, AhR. Description: In Vitro Assay 3: XRE-luciferase reporter assay, agonism in human cell line (HepG2). In kind it is cell-based. Also on record: endogenous in cells; host or cells: HepG2. Particulars: HepG2, tryptophan free medium, 6 hours, no agonist, read-out: Assay 3: AhR-Luc Human Agonism (EC50). How it is done:
In Vitro Assay 3: Agonism in Human Cell Line
HepG2 (human hepatoma cell line) cells co-transfected with XRE-Luc and Nano-Luc plasmids were plated in tryptophan free medium containing 1% of dialyzed fetal bovine serum and incubated overnight at 37° C. in a CO2 incubator. After 24 hours, cells were treated for 6 hours with test compounds or not. […] As a positive control, cells were incubated with TCDD.
In general terms: In a reporter assay the amount or activity of a reporter protein is the signal.

Setting [5] is: HepG2, read-out: CYP1A1 (% Inhibition).
The mark [6] stands for this setting: HepG2, read-out: CYP1B1 (% Inhibition).
Where [7] appears, read: Assay 1: AhR-Luc Human Antagonism (IC50, nM), values marked *: kynurenine 50 μM, 6 hours.
Where [8] appears, read: values marked #: AhR activating ligand kynurenine.
Setting [9] is: Assay 1: AhR-Luc Human Antagonism (IC50, nM), unmarked values: kynurenine 200 μM, 6 hours.
[10] abbreviates: unmarked values: AhR activating ligand kynurenic acid.

As a reminder, the inhibition is the drop in the measured response relative to a control, in per cent. In general, IC50 refers to the midpoint of a concentration-inhibition curve. In the case of `OCCC1CCN(c2cc(-c3ccc(Cl)cc3)nc(-c3cccnc3)n2)CC1` [Example 43, 2-(1-(6-(4-chlorophenyl)-2-(pyridin-3-yl)pyrimidin-4-yl)piperidin-4-yl)ethan-1-ol], the inhibition at 0.123 µM worked out at 97.1% on AhR [1] (setting [5]) and 100% on AhR [1] (setting [6]). On AhR [2] (setting [7]), the IC50 was < 10 nM.

For orientation: EC50 means the midpoint of the concentration-response curve. As for `CN1CCN(C2CCN(c3cc(-c4ccc(Cl)cc4)nc(-c4cccnc4)n3)CC2)CC1` [Example 92, 4-(4-chlorophenyl)-6-(4-(4-methylpiperazin-1-yl)piperidin-1-yl)-2-(pyridin-3-yl)pyrimidine], the IC50 at AhR [3] (setting [8]) fell in the range of 100 to 1000 nM; on AhR [2] (setting [7]) it was 10 to 100 nM. Moreover, the EC50 on AhR [4] (class in brackets of the cell) is > 10000 nM; on AhR [4] (number of the cell), > 30000 nM.

Turning to `CS(=O)(=O)N1CCN(c2cc(-c3ccc(Cl)cc3)nc(-c3cccnc3)n2)CC1` [Example 107, 4-(4-chlorophenyl)-6-(4-(methylsulfonyl)piperazin-1-yl)-2-(pyridin-3-yl)pyrimidine], the IC50 on AhR [3] (setting [8]) was 10 to 100 nM; on AhR [2] (setting [9]), < 10 nM. The results for the EC50 at AhR [4] (class in brackets of the cell) and on AhR [4] (number of the cell) were > 10000 nM and > 30000 nM, respectively.

As to `CC(=O)NC1CCN(c2cc(-c3ccc(Cl)cc3)nc(-c3cccnc3)n2)C1` (stereo not drawn) [Example 143, N-(1-(6-(4-chlorophenyl)-2-(pyridin-3-yl)pyrimidin-4-yl)pyrrolidin-3-yl)acetamide], the IC50 is 100 to 1000 nM at AhR [3] (setting [8]) and < 10 nM against AhR [2] (setting [7]). In addition, the results for the EC50 at AhR [4] (class in brackets of the cell) and on AhR [4] (number of the cell) were > 10000 nM and > 30000 nM, respectively.

As for `CC(=O)N1CCC(Nc2cc(-c3ccc(Cl)cc3)nc(-c3cccnc3)n2)CC1` [Example 146, 1-(4-((6-(4-chlorophenyl)-2-(pyridin-3-yl)pyrimidin-4-yl)amino)piperidin-1-yl)ethan-1-one], the figures for the inhibition at 0.123 µM on AhR [1] (setting [5]) and at AhR [1] (setting [6]) were 41.8% and 77.2%, respectively. Further, on AhR [2] (setting [7]), the IC50 was in the range of 10 to 100 nM.

With `CC(=O)N1CCC(CNc2cc(-c3ccc(Cl)cc3)nc(-c3cccnc3)n2)CC1` [Example 154, 1-(4-(((6-(4-chlorophenyl)-2-(pyridin-3-yl)pyrimidin-4-yl)amino)methyl)piperidin-1-yl)ethan-1-one], the IC50 at AhR [3] (setting [8]) is 10 to 100 nM; at AhR [2] (setting [7]), < 10 nM. Also, the EC50 was > 10000 nM on AhR [4] (class in brackets of the cell) and > 30000 nM at AhR [4] (number of the cell).

In the case of `O[C@H]1CC[C@@H](Nc2cc(-c3ccc(Cl)cc3)nc(-c3cccnc3)n2)C1` [Example 162, (1S,3R)-3-((6-(4-chlorophenyl)-2-(pyridin-3-yl)pyrimidin-4-yl)amino)cyclopentan-1-ol], the figures for the 50% inhibitory concentration (IC50) on AhR [3] (setting [8]) and on AhR [2] (setting [7]) were 100 to 1000 nM and < 10 nM, respectively. The figures for the 50% effective concentration (EC50) at AhR [4] (class in brackets of the cell) and on AhR [4] (number of the cell) were > 10000 nM and > 30000 nM, respectively.

As to `COc1ccc(-c2cc(N3CCC(CO)CC3)nc(-c3cccnc3)n2)cc1` [Example 228, (1-(6-(4-methoxyphenyl)-2-(pyridin-3-yl)pyrimidin-4-yl)piperidin-4-yl)methanol], the values for the inhibition at 0.123 µM at AhR [1] (setting [5]) and at AhR [1] (setting [6]) were 107% and 101%, respectively. The same compound registered a concentration for half-maximal inhibition (IC50) against AhR [2] (setting [9]) of 10 to 100 nM.

With `Cc1ccc(-c2cc(N3CCC(CO)CC3)nc(-c3cccnc3)n2)cc1` [Example 229, (1-(2-(pyridin-3-yl)-6-(p-tolyl)pyrimidin-4-yl)piperidin-4-yl)methanol], the inhibition at 0.123 µM on AhR [1] (setting [5]) turned out to be 108%; at AhR [1] (setting [6]), 101%. Also, at AhR [2] (setting [9]), the IC50 lay in the range of 10 to 100 nM. Further, the EC50 was > 10000 nM on AhR [4] (class in brackets of the cell) and > 30000 nM at AhR [4] (number of the cell).

For `OCC1CN(c2cc(-c3ccc(Cl)cc3)nc(-c3cccnc3)n2)CC1O` (stereo not drawn) [Example 236, 1-(6-(4-chlorophenyl)-2-(pyridin-3-yl)pyrimidin-4-yl)-4-(hydroxymethyl)pyrrolidin-3-ol], the concentration for half-maximal inhibition (IC50) is 100 to 1000 nM on AhR [3] (setting [8]) and < 10 nM on AhR [2] (setting [7]). Besides, the EC50 on AhR [4] (number of the cell) was 40.1 nM.

On to `OC[C@H]1CN(c2cc(-c3ccc(C(F)(F)F)cc3)nc(-c3cccnc3)n2)CCO1` [Example 280, (R)-(4-(2-(pyridin-3-yl)-6-(4-(trifluoromethyl)phenyl)pyrimidin-4-yl)morpholin-2-yl)methanol], for which the IC50 was 10 to 100 nM at AhR [3] (setting [10]) and < 10 nM against AhR [2] (setting [9]).

In the case of `OC[C@@H]1CCN(c2cc(-c3ccc(Cl)cc3)nc(-c3cccnc3)n2)C[C@H]1F` [Example 282, ((3S,4S)-1-(6-(4-chlorophenyl)-2-(pyridin-3-yl)pyrimidin-4-yl)-3-fluoropiperidin-4-yl)methanol], the results for the IC50 on AhR [3] (setting [10]) and against AhR [2] (setting [9]) were 100 to 1000 nM and < 10 nM, respectively. In addition, the EC50 on AhR [4] (class in brackets of the cell) is > 10000 nM; at AhR [4] (number of the cell) it was > 30000 nM.

For `O[C@H]1CN(c2cc(-c3ccc(C(F)(F)F)cc3)nc(-c3cccnc3)n2)C[C@@H]1O` [Example 283, (3S,4S)-1-(2-(pyridin-3-yl)-6-(4-(trifluoromethyl)phenyl)pyrimidin-4-yl)pyrrolidine-3,4-diol], the values for the 50% inhibitory concentration (IC50) on AhR [3] (setting [10]) and against AhR [2] (setting [9]) were 10 to 100 nM and < 10 nM, respectively. Besides, the EC50 on AhR [4] (class in brackets of the cell) is > 10000 nM; on AhR [4] (number of the cell) it was > 30000 nM.

Regarding `Cn1cc(-c2nc(-c3ccc(C(F)(F)F)cc3)cc(N3CC[C@@H](C(=O)O)C3)n2)cn1` [Example 312, (R)-1-(2-(1-methyl-1H-pyrazol-4-yl)-6-(4-(trifluoromethyl)phenyl)pyrimidin-4-yl)pyrrolidine-3-carboxylic acid], the 50% inhibitory concentration (IC50) on AhR [3] (setting [10]) was > 1000 nM.

Turning to `O=S(=O)(C(F)F)N1CCN(c2cc(-c3ccc(Cl)cc3)nc(-c3cccnc3)n2)CC1` [Example 339, 4-(4-chlorophenyl)-6-(4-((difluoromethyl)sulfonyl)piperazin-1-yl)-2-(pyridin-3-yl)pyrimidine], the inhibition at 0.123 µM on AhR [1] (setting [5]) was determined as 84.7%. At AhR [2] (setting [9]), the IC50 was in the range of 10 to 100 nM.

`O=S(=O)(CCO)N1CCN(c2cc(-c3ccc(C(F)(F)F)cc3)nc(-c3cccnc3)n2)CC1` [Example 349, 2-((4-(2-(pyridin-3-yl)-6-(4-(trifluoromethyl)phenyl)pyrimidin-4-yl)piperazin-1-yl)sulfonyl)ethan-1-ol]: the inhibition at 0.123 µM at AhR [1] (setting [5]) came to 97.6%. Moreover, the IC50 on AhR [2] (setting [9]) was < 10 nM.

Turning to “(3R,4R)-1-(6-(4-chlorophenyl)-2-(pyridin-3-yl)pyrimidin-4-yl)pyrrolidine-3,4-diol [Example 230]”, the IC50 at AhR [3] (setting [8]) was in the range of 10 to 100 nM; on AhR [2] (read-out: Assay 1: AhR-Luc Human Antagonism (IC50), values marked *: kynurenine 50 μM, 6 hours) it was 10 to 100 nM.
